Where two headings read alike, the source gives them in different places.
What was measured:
Type in all cases: in vivo
[1] = test system: larvae of brown planthopper (Nilaparvata lugens Stahl); test: Test Example 1: insecticidal activity against larvae of brown planthopper; settings: third-instar larvae, 25° C.
How it was run: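 Rice seedlings at 1.5-leaf stage were dipped for 30 s in a 400 ppm test composition, air-dried, and infested with third-instar N. lugens larvae. After holding at 25 °C, mortality was scored 5 or 7 days post-treatment from three replicates.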

[2] = test system: larvae of white-backed planthopper (Sogatella furcifera Horvath); test: Test Example 2: insecticidal activity against larvae of white-backed planthopper; settings: 168 h, 400 ppm, first-instar larvae, 25° C., seven days after treatment, read-out: Mortality
Description: Insecticidal activity against larvae of white-backed planthopper (Sogatella furcifera Horvath).
Testing method: Five rice seedlings of the 1.5 leaf age were dipped in a test composition of 400 ppm concentration for 30 seconds. After air-drying, the seedlings were placed in a glass tube containing 1 ml of water and infested with five first-instar larvae of white-backed planthopper. The glass tube was left standing in a constant temperature cabinet at 25° C. and seven days after the treatment, dead-and-survival was observed. Mortality was calculated from the results of 3-replication test.

[3] = test system: two-spotted spider mite (Tetranychus urticae Koch); test: Test Example 3: activity to two-spotted spider mite
From the text: Activity to two-spotted spider mite (Tetranychus urticae Koch).
Testing method: Two-spotted spider mites were set free on the pot-planted soybean in a greenhouse. On the next day, a test composition of 1,000 ppm concentration was sprayed over the soybean by means of a spray gun. Two days or five days after the treatment, dead-and-survival was inspected to calculate the mortality.

[4] = test system: cirrus red mite (Panonychus citri McGregor); test: Test Example 4: activity to citrus red mite (Rothamstead method); set-up: concentration or dose not given beside the values; settings: two days after treatment, 25° C.; 2880 min
Description: Activity to cirrus red mite (Panonychus citri McGregor).
Testing method: The test was performed by Rothamstead method. A test composition was sprayed by means of a spray gun over grapefruit leaves infested with citrus red mites. After air-drying the grapefruit was left standing in a constant temperature cabinet at 25° C. Two days after the treatment, the number of survived mites was counted to calculate the mortality.

[5] = test system: larvae of green rice leafhopper (Nephotettix cincticeps Uhler); test: Test Example 5: activity against larvae of green rice leafhopper; settings: 168 h, 400 ppm, second-instar larvae, 25° C., seven days after treatment, read-out: Mortality
How it was run: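 Rice seedlings at 1.5 leaf age dipped 30 seconds in 400 ppm test composition, air-dried, then infested with five second-instar larvae. Kept at 25° C; mortality scored seven days after treatment, three replicates.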

[6] = test system: larvae of house mosquito (Culex pipiens pallens Coquillett); test: Test Example 6: insecticidal activity to larvae of house mosquito; settings: 120 h
How it was run: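 Twenty first-instar Culex pipiens pallens larvae placed with feed in test composition diluted in deionized water to 10 ppm. Kept at 25 °C, and mortality counted five days after treatment.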

[7] = test system: larvae of 28-spotted lady beetle (Epilachna vigintioctopunctana Fabricius); test: Test Example 8: insecticidal activity against larvae of 28-spotted lady beetle; settings: 120 h
Description: Insecticidal activity against larvae of 28-spotted lady beetle (Epilachna vigintioctopunctana Fabricius).
Testing method: Leaflets of tomato grown in a greenhouse were dipped in a test composition of 100 ppm concentration for 30 seconds and after that the leaflets were dried by air. In a Petri dish covered on the bottom with a piece of filter paper, were introduced 1 ml of water and three treated tomato leaflets. After having been infested with seven second-instar larvae of 28-spotted lady beetle, the Petri dish was left standing in a constant temperature cabinet at 25° C. Five days after the treatment, the dead-and-survival was inspected to calculate the mortality (2-replication test).

[8] = test system: larvae of bug. (Togo hemipterus Scott); test: Test Example 9: insecticidal activity against larvae of bug; settings: 120 h, 10 ppm, first-instar larvae, 25° C., five days, read-out: Mortality
Description: Insecticidal activity against larvae of bug. (Togo hemipterus Scott).
Test method: Into a glass tube (1.6 cm in internal diameter and 9 cm in length), was added 1 ml of a test composition in 10 ppm concentration just to moisten the absorbent cotton. Five rice seeds and five first-instar larvae were introduced into the glass tube and the tube end was covered with a piece of Japanese paper. The glass tube was kept in a constant temperature cabinet at 25° C. Five days after treatment, the dead-and-survival was inspected to calculate the mortality (3-replication test).

[9] = 48 h, 1,000 ppm, 2 days after treatment
[10] = 100 ppm, second-instar larvae, 25° C., five days, read-out: Mortality
[11] = 120 h, 1,000 ppm, 5 days after treatment

Row | SMILES | mortality at 400 ppm ([1]; 168 h, 7 days after treatment) | mortality at 400 ppm [2] | mortality at 1000 ppm [3, 9] | Mortality [4] | mortality at 400 ppm [5] | mortality at 400 ppm ([1]; 120 h, 5 days after treatment) | mortality at 10 ppm [6] | mortality at 100 ppm [7, 10] | mortality at 10 ppm [8] | mortality at 100 ppm [7] | mortality at 1000 ppm [3, 11]
1 | CN1C(=O)N(C2CCCCC2)CSC1=NC(C)(C)C [Compound 53] | 80% | 80% | 100% | 100% | 50% | – | – | – | – | – | –
2 | CCCN=C1SCN(Cc2ccccc2)C(=O)N1CCC [Compound 56] | 80% | 80% | 100% | 100% | 50% | – | – | – | – | – | –
3 | CC(C)N=C1SCN(C(C)(C)CC(C)(C)C)C(=O)N1C [Compound 59] | 100% | 100% | 100% | 100% | 100% | – | – | – | – | – | –
4 | CN1C(=O)N(C(C)(C)CC(C)(C)C)CSC1=NC(C)(C)C [Compound 63, 2-t-Butylimino-3-methyl-5-(1,1,3,3-tetramethyl)-butyl-tetrahydro-1,3,5-thiadiazin-4-one] | 100% | 100% | 80% | 50% | 80% | – | – | – | – | – | –
5 | CCCCCCCCN1CSC(=NC(C)C)N(C)C1=O [Compound 65] | 100% | 100% | 100% | 100% | 50% | – | – | – | – | – | –
6 | CN=C1SCN(C(C)C)C(=O)N1c1ccccc1 [Compound 66, 2-Methylimino-3-phenyl-5-isopropyltetrahydro-1,3,5-thiadiazin-4-one] | 100% | 100% | 100% | 50% | 80% | – | – | – | – | – | –
7 | CN=C1SCN(C(C)C)C(=O)N1c1ccc(Cl)cc1C [Compound 68] | 100% | 100% | 100% | 50% | 50% | – | – | – | – | – | –
8 | CN=C1SCN(C(C)(C)C)C(=O)N1c1ccccc1 [Compound 69] | 100% | 100% | 100% | 80% | 100% | – | – | – | – | – | –
9 | CN=C1SCN(C(C)(C)C)C(=O)N1c1ccc(F)cc1 [Compound 71] | 80% | 80% | 100% | 50% | 50% | – | – | – | – | – | –
10 | Cc1ccc(N=C2SCN(C(C)(C)C)C(=O)N2C)cc1 [Compound 72, 2-p-Tolylimino-3-methyl-5-t-butyl-tetrahydro-1,3,5-thiadiazin-4-one] | 80% | 100% | 100% | 80% | 80% | – | – | – | – | – | –
11 | CC(C)N=C1SCN(C(C)(C)C)C(=O)N1c1ccccc1 [Compound 75] | 100% | 100% | 80% | 50% | 50% | – | – | – | – | – | –
12 | CCN=C1SCN(C(C)(C)C)C(=O)N1c1ccccc1C [Compound 80, 2-Ethylimino-3-o-tolyl-5-t-butyl-tetrahydro-1,3,5-thiadiazin-4-one] | 100% | 100% | 80% | 100% | 50% | – | – | – | – | – | –
13 | CN=C1SCN(C(C)(C)C)C(=O)N1c1ccc(Cl)cc1C [Compound 82] | 100% | 100% | 100% | 100% | 80% | – | – | – | – | – | –
14 | COc1ccc(Cl)cc1N1C(=O)N(Cc2ccccc2)CSC1=NC(C)C [Compound 87] | 100% | 100% | 100% | 100% | 80% | – | – | – | – | – | –
15 | CN=C1SCN(C(C)(C)CC(C)(C)C)C(=O)N1c1ccccc1 [Compound 88] | 100% | 100% | 100% | 100% | 80% | – | – | – | – | – | –
16 | CCCN=C1SCN(c2ccccc2)C(=O)N1CC [Compound 126] | – | – | – | – | – | 100% | 100% | 80% | 100% | – | –
17 | CCN1C(=O)N(c2ccccc2)CSC1=NC(C)C [Compound 127] | – | – | – | – | – | 100% | 100% | – | 100% | 80% | –
18 | CCN1C(=O)N(c2ccccc2)CSC1=NCC(C)C [Compound 129] | – | – | – | – | – | 80% | 100% | – | 100% | – | –
19 | CCCN=C1SCN(c2ccccc2)C(=O)N1CCC [Compound 134] | – | – | – | – | – | 100% | 80% | – | 80% | 80% | –
20 | CCCN1C(=O)N(c2ccccc2)CSC1=NC(C)CC (centres unmarked) [Compound 136] | – | – | – | – | – | 80% | 100% | – | 100% | 50% | –
21 | CCCN1C(=O)N(c2ccccc2)CSC1=NC(C)(C)C [Compound 137] | – | – | – | – | – | 80% | 100% | – | 50% | 50% | –
22 | C=CCN=C1SCN(c2ccccc2)C(=O)N1CC=C [Compound 139] | – | – | – | – | – | 100% | 100% | – | 100% | 100% | –
23 | CC(C)CN=C1SCN(c2ccccc2)C(=O)N1CC(C)C [Compound 148] | – | – | – | 100% | – | 100% | – | – | – | 100% | –
24 | CC(C)CN1C(=O)N(c2ccccc2)CSC1=NC(C)C [Compound 149, 2-Isopropylimino-3-isobutyl-5-phenyl-tetrahydro-1,3,5-thiadiazin-4-one] | – | – | – | – | – | 100% | 100% | – | 50% | 100% | –
25 | CC(C)(C)N=C1SCN(c2ccccc2)C(=O)N1C1CCCCC1 [Compound 155, 2-t-Butylimino-3-cyclohexyl-5-phenyl-tetrahydro-1,3,5-thiadiazin-4-one] | – | – | – | – | – | 50% | 100% | – | 100% | 100% | –
26 | CCC(C)N1C(=O)N(c2ccccc2)CSC1=NC(C)(C)CC(C)(C)C (centres unmarked) [Compound 157] | – | – | – | – | – | 100% | 100% | – | 100% | 100% | –
27 | CCN=C1SCN(c2ccccc2)C(=O)N1c1ccccc1 [Compound 162] | – | – | – | – | – | 100% | 100% | 50% | 50% | – | –
28 | CCC(C)N1C(=O)N(c2ccccc2Cl)CSC1=NC(C)(C)C (centres unmarked) [Compound 249] | – | – | – | 100% | 100% | 100% | 100% | – | – | 100% | 70%
29 | Cc1ccc(N2CSC(=NC(C)C)N(C(C)C)C2=O)cc1 [Compound 316] | – | 100% | – | 100% | – | 100% | 70% | – | – | 100% | 100%
30 | CCC(C)N1C(=O)N(c2ccc(C)cc2)CSC1=NC(C)(C)C (centres unmarked) [Compound 319] | – | 100% | – | 100% | 100% | 100% | 100% | – | – | 100% | 100%
